Measurements: patent publication US20240382629A1, “HETEROBIVALENT AND HOMOBIVALENT AGENTS TARGETING FIBROBLAST ACTIVATION PROTEIN ALPHA AND/OR PROSTATE-SPECIFIC MEMBRANE ANTIGEN” (The Johns Hopkins University, priority 2021, published 2024)
Values joined by “and” are separate entries in the source; they are usually repeats but may differ in a detail not shown here. Equal values may be shown once.

Experiment: Biodistribution of [^18F]JHU1221785 with cold FAPI-04 blocker
Assay type: in vivo, mouse
Settings: for % ID/g Bladder / % ID/g Blood / % ID/g Brain / % ID/g Fat / % ID/g Heart / % ID/g Kidney / % ID/g Large intestine / % ID/g Lung / % ID/g Muscle / % ID/g Pancreas / % ID/g Salivary gland / % ID/g Small intestine / % ID/g Spleen / % ID/g Stomach / % ID/g Tumor: single mouse
[1] = + Blocker Cold FAPI-04 (10 nmole), 60 min

With N#C[C@@H]1CCCN1C(=O)CNC(=O)c1ccnc2ccc(OCCCNC(=O)[C@@H](CC(=O)O)NC(=O)[C@@H](CC(=O)O)NC(=O)c3ccc([18F])nc3)cc12 [[^18F]JHU1221785] the “% ID/g Mean Bladder” value (30 min) was 2.81 % ID/g, the “% ID/g Bladder” value (30 min) was 0.93 % ID/g and 4.69 % ID/g and the “% ID/g Mean Bladder” value (60 min) was 0.84 % ID/g. The “% ID/g Bladder” value (60 min) was 0.76 % ID/g and 0.92 % ID/g, the “% ID/g Mean Bladder” value [1] was 0.45 % ID/g and the “% ID/g Bladder” value [1] was 0.23 % ID/g and 0.67 % ID/g. For the same compound, the “% ID/g Mean Blood” value (30 min) was 4.94 % ID/g, the “% ID/g Blood” value (30 min) was 5.98 % ID/g and 3.90 % ID/g and the “% ID/g Mean Blood” value (60 min) was 3.57 % ID/g. The “% ID/g Blood” value (60 min) was 2.56 % ID/g and 4.57 % ID/g, the “% ID/g Mean Blood” value [1] was 4.68 % ID/g and the “% ID/g Blood” value [1] was 0.11 % ID/g and 9.26 % ID/g. The “% ID/g Mean Brain” value (30 min) was 0.14 % ID/g, the “% ID/g Brain” value (30 min) was 0.14 % ID/g and 0.15 % ID/g and the “% ID/g Mean Brain” value (60 min) was 0.10 % ID/g. The “% ID/g Brain” value (60 min) was 0.09 % ID/g and 0.12 % ID/g, the “% ID/g Mean Brain” value [1] was 0.03 % ID/g and the “% ID/g Brain” value [1] was 0.02 % ID/g and 0.04 % ID/g. The “% ID/g Mean Fat” value (30 min) was 0.20 % ID/g, the “% ID/g Fat” value (30 min) was 0.21 % ID/g and 0.19 % ID/g and the “% ID/g Mean Fat” value (60 min) was 0.22 % ID/g. For the same compound, the “% ID/g Fat” value (60 min) was 0.22 % ID/g and 0.21 % ID/g, the “% ID/g Mean Fat” value [1] was 0.12 % ID/g and the “% ID/g Fat” value [1] was 0.03 % ID/g and 0.21 % ID/g. The “% ID/g Mean Femur” value (30 min) was 2.61 % ID/g, the “% ID/g Mean Femur” value (60 min) was 2.07 % ID/g and the “% ID/g Mean Femur” value [1] was 1.51 % ID/g. For the same compound, the “% ID/g Mean Heart” value (30 min) was 2.26 % ID/g, the “% ID/g Heart” value (30 min) was 2.51 % ID/g and 2.01 % ID/g and the “% ID/g Mean Heart” value (60 min) was 1.56 % ID/g. For the same compound, the “% ID/g Heart” value (60 min) was 1.38 % ID/g and 1.73 % ID/g, the “% ID/g Mean Heart” value [1] was 0.07 % ID/g and the “% ID/g Heart” value [1] was 0.06 % ID/g and 0.07 % ID/g. For the same compound, the “% ID/g Mean Kidney” value (30 min) was 2.47 % ID/g, the “% ID/g Kidney” value (30 min) was 1.60 % ID/g and 3.33 % ID/g and the “% ID/g Mean Kidney” value (60 min) was 0.91 % ID/g. For the same compound, the “% ID/g Kidney” value (60 min) was 0.79 % ID/g and 1.04 % ID/g, the “% ID/g Mean Kidney” value [1] was 0.46 % ID/g and the “% ID/g Kidney” value [1] was 0.41 % ID/g and 0.51 % ID/g. For the same compound, the “% ID/g Mean Large intestine” value (30 min) was 0.72 % ID/g, the “% ID/g Large intestine” value (30 min) was 0.58 % ID/g and 0.86 % ID/g and the “% ID/g Mean Large intestine” value (60 min) was 0.69 % ID/g. The “% ID/g Large intestine” value (60 min) was 0.61 % ID/g and 0.78 % ID/g, the “% ID/g Mean Large intestine” value [1] was 0.20 % ID/g and the “% ID/g Large intestine” value [1] was 0.08 % ID/g and 0.33 % ID/g. For the same compound, the “% ID/g Mean Liver” value (30 min) was 7.32 % ID/g, the “% ID/g Mean Liver” value (60 min) was 7.84 % ID/g and the “% ID/g Mean Liver” value [1] was 9.89 % ID/g. The “% ID/g Mean Lung” value (30 min) was 2.65 % ID/g, the “% ID/g Lung” value (30 min) was 2.77 % ID/g and 2.53 % ID/g and the “% ID/g Mean Lung” value (60 min) was 2.18 % ID/g. For the same compound, the “% ID/g Lung” value (60 min) was 1.70 % ID/g and 2.65 % ID/g, the “% ID/g Mean Lung” value [1] was 0.17 % ID/g and the “% ID/g Lung” value [1] was 0.13 % ID/g and 0.20 % ID/g. For the same compound, the “% ID/g Mean Muscle” value (30 min) was 0.96 % ID/g, the “% ID/g Muscle” value (30 min) was 0.81 % ID/g and 1.12 % ID/g and the “% ID/g Mean Muscle” value (60 min) was 0.98 % ID/g. For the same compound, the “% ID/g Muscle” value (60 min) was 1.06 % ID/g and 0.89 % ID/g, the “% ID/g Mean Muscle” value [1] was 0.06 % ID/g and the “% ID/g Muscle” value [1] was 0.04 % ID/g and 0.07 % ID/g. For the same compound, the “% ID/g Mean Pancreas” value (30 min) was 2.31 % ID/g, the “% ID/g Pancreas” value (30 min) was 1.92 % ID/g and 2.71 % ID/g and the “% ID/g Mean Pancreas” value (60 min) was 2.07 % ID/g. For the same compound, the “% ID/g Pancreas” value (60 min) was 1.96 % ID/g and 2.17 % ID/g, the “% ID/g Mean Pancreas” value [1] was 0.13 % ID/g and the “% ID/g Pancreas” value [1] was 0.05 % ID/g and 0.22 % ID/g. The “% ID/g Mean Salivary gland” value (30 min) was 2.93 % ID/g, the “% ID/g Salivary gland” value (30 min) was 2.81 % ID/g and 3.05 % ID/g and the “% ID/g Mean Salivary gland” value (60 min) was 3.45 % ID/g. For the same compound, the “% ID/g Salivary gland” value (60 min) was 2.17 % ID/g and 4.73 % ID/g, the “% ID/g Mean Salivary gland” value [1] was 0.05 % ID/g and the “% ID/g Salivary gland” value [1] was 0.04 % ID/g and 0.06 % ID/g. For the same compound, the “% ID/g Mean Small intestine” value (30 min) was 2.49 % ID/g, the “% ID/g Small intestine” value (30 min) was 2.60 % ID/g and 2.38 % ID/g and the “% ID/g Mean Small intestine” value (60 min) was 1.83 % ID/g. The “% ID/g Small intestine” value (60 min) was 1.65 % ID/g and 2.01 % ID/g, the “% ID/g Mean Small intestine” value [1] was 3.54 % ID/g and the “% ID/g Small intestine” value [1] was 0.88 % ID/g and 6.19 % ID/g. For the same compound, the “% ID/g Mean Spleen” value (30 min) was 1.00 % ID/g, the “% ID/g Spleen” value (30 min) was 1.03 % ID/g and 0.97 % ID/g and the “% ID/g Mean Spleen” value (60 min) was 0.93 % ID/g. For the same compound, the “% ID/g Spleen” value (60 min) was 0.78 % ID/g and 1.09 % ID/g, the “% ID/g Mean Spleen” value [1] was 0.16 % ID/g and the “% ID/g Spleen” value [1] was 0.08 % ID/g and 0.25 % ID/g. For the same compound, the “% ID/g Mean Stomach” value (30 min) was 0.82 % ID/g, the “% ID/g Stomach” value (30 min) was 0.72 % ID/g and 0.92 % ID/g and the “% ID/g Mean Stomach” value (60 min) was 0.71 % ID/g. The “% ID/g Stomach” value (60 min) was 0.60 % ID/g and 0.81 % ID/g, the “% ID/g Mean Stomach” value [1] was 0.16 % ID/g and the “% ID/g Stomach” value [1] was 0.09 % ID/g and 0.23 % ID/g. For the same compound, the “% ID/g Mean Tumor” value (30 min) was 1.24 % ID/g, the “% ID/g Tumor” value (30 min) was 1.14 % ID/g and 1.34 % ID/g and the “% ID/g Mean Tumor” value (60 min) was 2.23 % ID/g. The “% ID/g Tumor” value (60 min) was 2.59 % ID/g and 1.47 % ID/g, the “% ID/g Mean Tumor” value [1] was 0.10 % ID/g and the “% ID/g Tumor” value [1] was 0.08 % ID/g and 0.11 % ID/g.
